Reference: the NIST ThermoML archive (doi:10.1016/j.fluid.2016.09.021)
± gives the expanded uncertainty stated by the source.

Conditions: Liquid, Vibrating tube method

Cc1ccccc1 [toluene]
mass density [kg/m3]
Conditions | 293 K | 313 K | 333 K | 353 K | 373 K | 393 K | 413 K | 433 K | 448 K | 468 K
2000 kPa | 871.2 ± 2 | 852.2 ± 2 | 833 ± 2 | 814.2 ± 2.1 | 794.2 ± 2.1 | 774.2 ± 2.1 | 753.1 ± 2.2 | 731.6 ± 2.2 | 714.3 ± 2.3 | 689.9 ± 2.3
3000 kPa | 871.9 ± 2 | 853 ± 2 | 834 ± 2 | 815.2 ± 2 | 795.4 ± 2.1 | 775.7 ± 2.1 | 754.9 ± 2.1 | 733.6 ± 2.2 | 716.6 ± 2.2 | 692.7 ± 2.3
4000 kPa | 872.6 ± 2 | 853.9 ± 2 | 834.9 ± 2 | 816.3 ± 2.1 | 796.6 ± 2.1 | 777.2 ± 2.1 | 756.5 ± 2.1 | 735.6 ± 2.2 | 718.9 ± 2.2 | 695.5 ± 2.3
5000 kPa | 873.2 ± 2 | 854.6 ± 2 | 835.8 ± 2 | 817.3 ± 2 | 797.8 ± 2.1 | 778.5 ± 2 | 758.3 ± 2.1 | 737.5 ± 2.1 | 721.1 ± 2.2 | 698.2 ± 2.3
10000 kPa | 876.8 ± 2 | 858.6 ± 2 | 840.2 ± 2 | 822.4 ± 2 | 803.8 ± 2.1 | 785.1 ± 2.1 | 766.1 ± 2.1 | 746.9 ± 2.1 | 731.4 ± 2.1 | 710.6 ± 2.2
20000 kPa | 883.4 ± 2 | 866.1 ± 2 | 848.2 ± 2 | 831.5 ± 2 | 814 ± 2.1 | 797 ± 2.1 | 779.5 ± 2.1 | 762.1 ± 2.1 | 748.5 ± 2.1 | 730.4 ± 2.1
30000 kPa | 889.3 ± 2 | 872.9 ± 2 | 855.9 ± 2 | 840.1 ± 2 | 823.5 ± 2.1 | 807.5 ± 2.1 | 791.3 ± 2.1 | 774.9 ± 2.1 | 762.6 ± 2.1 | 745.9 ± 2.1
40000 kPa | 895.1 ± 2 | 879 ± 2 | 863 ± 2 | 847.6 ± 2 | 832 ± 2.1 | 816.9 ± 2.1 | 801.6 ± 2.1 | 786.5 ± 2.1 | 774.7 ± 2.1 | 759.3 ± 2.1
50000 kPa | 900.5 ± 2 | 884.8 ± 2 | 869.2 ± 2 | 854.7 ± 2 | 840.2 ± 2.1 | 825.2 ± 2.1 | 810.8 ± 2.1 | 796.7 ± 2.1 | 785.5 ± 2.1 | 771.1 ± 2.1
60000 kPa | 905.8 ± 2 | 890.4 ± 2 | 875.6 ± 2 | 861.5 ± 2.1 | 847.2 ± 2.1 | 833.3 ± 2.1 | 819.2 ± 2.1 | 805.8 ± 2.1 | 795.1 ± 2.1 | 781.7 ± 2.1
70000 kPa | 910.8 ± 2 | 896 ± 2 | 881.5 ± 2 | 867.7 ± 2.1 | 853.9 ± 2.1 | 840.6 ± 2.1 | 827.3 ± 2.1 | 814.3 ± 2.1 | 804.1 ± 2.1 | 790.9 ± 2.1
80000 kPa | 915.8 ± 2 | 901.2 ± 2 | 887.1 ± 2.1 | 873.8 ± 2.1 | 860.3 ± 2.1 | 847.3 ± 2.1 | 834.6 ± 2.1 | 822 ± 2.1 | 812.3 ± 2.1 | 799.8 ± 2.1
90000 kPa | 920.4 ± 2 | 906.3 ± 2 | 892.3 ± 2.1 | 879.6 ± 2.1 | 866.6 ± 2.1 | 854 ± 2.1 | 841.3 ± 2.1 | 829.2 ± 2.1 | 820 ± 2.1 | 808 ± 2.2
100000 kPa | 924.8 ± 2 | 911 ± 2 | 897.6 ± 2.1 | 884.9 ± 2.1 | 872.2 ± 2.1 | 860.1 ± 2.1 | 848 ± 2.1 | 836 ± 2.1 | 827.2 ± 2.1 | 815.5 ± 2.2
110000 kPa | 929.4 ± 2 | 915.7 ± 2 | 902.5 ± 2.1 | 890.3 ± 2.1 | 877.8 ± 2.1 | 866 ± 2.1 | 854.2 ± 2.1 | 842.6 ± 2.1 | 833.9 ± 2.2 | 822.8 ± 2.2
120000 kPa | 933.6 ± 2 | 920.3 ± 2 | 907.3 ± 2.1 | 895.4 ± 2.1 | 883.3 ± 2.1 | 871.6 ± 2.1 | 860.2 ± 2.1 | 848.7 ± 2.1 | 840.2 ± 2.2 | 829.5 ± 2.2
130000 kPa | 938 ± 2 | 924.8 ± 2 | 912 ± 2.1 | 900.3 ± 2.1 | 888.5 ± 2.1 | 877.2 ± 2.1 | 865.8 ± 2.1 | 854.9 ± 2.2 | 846.6 ± 2.2 | 836 ± 2.2
135000 kPa | 939.9 ± 2 | 927 ± 2 | 914.2 ± 2.1 | 902.6 ± 2.1 | 890.8 ± 2.1 | 879.8 ± 2.1 | 868.5 ± 2.1 | 857.7 ± 2.2 | 849.6 ± 2.2 | 838.9 ± 2.2
137500 kPa | 940.9 ± 2 | 927.9 ± 2 | 915.4 ± 2.1 | 903.7 ± 2.1 | 892 ± 2.1 | 881 ± 2.1 | 869.7 ± 2.1 | 859 ± 2.2 | 850.9 ± 2.2 | 840.4 ± 2.2
